Values of other authors, collected in patent US9987239B1, “Pharmaceutical retinoid preparation for topical use” (Rey Ventures, LLC, priority 2017, dated 2018).

**Q.** For `COc1ccc(-c2ccc3cc(C(=O)O)ccc3c2)cc1C12CC3CC(CC(C3)C1)C2` [adapalene, 6-[3-(1-adamantyl)-4-methoxyphenyl] naphthalene-2-carboxylic], which “solubility of adapalene in ethyl alcohol” value (ethyl alcohol) is on record?
**A.** 1000 µg/mL

**Q.** And the “solubility of adapalene (water)” value (water)?
**A.** 0.004 µg/mL
